Experimental data: patent US11590139B2, “Substituted aminopurine compounds, compositions thereof, and methods of treatment therewith” (Signal Pharmaceuticals, LLC, priority 2014, dated 2023)

Tested on: Lox-IMVI melanoma cell line
Assay: Lox-IMVI anti-proliferative assay (growth inhibition, Cell Titer-Glo)
Assay type: cell-based, human
Conditions: Homo sapiens; Lox-IMVI melanoma cell line, anti-proliferative assay; read-out: Activity (IC50 activity level)
Method in brief: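 Cells grown in RPMI + 10% FBS were exposed to compound at 0.5 nM to 10 μM (10-point, 3-fold dilution, duplicate, 0.2% DMSO final) for 72 h at 37 °C, 5% CO2. Viability was read by ATP luminescence at t0 and 72 h. IC50 came from a four-parameter logistic fit normalized to DMSO control.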

| IC50 | SMILES |
| --- | --- |
| 500 to 1000 nM | CC(C)OC(=O)N1CCC[C@@H](Nc2ncc3nc(Nc4c(F)cc(Cl)cc4F)n([C@H]4CC[C@@H](C(N)=O)CC4)c3n2)C1 [Example 773, (R)-isopropyl 3-(9-((1s,4S)-4-carbamoylcyclohexyl)-8-(4-chloro-2,6-difluorophenylamino)-9H-purin-2-ylamino)piperidine-1-carboxylate] |
| 250 to 500 nM | CC(C)OC(=O)N1CCC[C@@H](Nc2ncc3nc(Nc4c(F)cc(Cl)cc4Cl)n([C@H]4CC[C@@H](C(N)=O)CC4)c3n2)C1 [Example 774, (R)-isopropyl 3-(9-((1s,4S)-4-carbamoylcyclohexyl)-8-(2,4-dichloro-6-fluorophenylamino)-9H-purin-2-ylamino)piperidine-1-carboxylate] |
| > 1000 nM | CC(C)OC(=O)N1CCC[C@@H](Nc2ncc3nc(Nc4c(Cl)cc(F)cc4Cl)n([C@H]4CC[C@@H](C(N)=O)CC4)c3n2)C1 [Example 775, (R)-isopropyl 3-(9-((1s,4S)-4-carbamoylcyclohexyl)-8-(2,6-dichloro-4-fluorophenylamino)-9H-purin-2-ylamino)piperidine-1-carboxylate] |
| > 1000 nM | N#Cc1cc(F)c(Nc2nc3cnc(N[C@@H]4CCCN(Cc5ccccc5)C4)nc3n2[C@H]2CC[C@@H](C(N)=O)CC2)c(Cl)c1 [Example 777, (1S,4s)-4-(2-((R)-1-benzylpiperidin-3-ylamino)-8-(2-chloro-4-cyano-6-fluorophenylamino)-9H-purin-9-yl)cyclohexanecarboxamide] |
| > 1000 nM | NC(=O)[C@H]1CC[C@@H](n2c(Nc3c(F)cc(F)cc3Cl)nc3cnc(N[C@@H]4CCCN(C(=O)Nc5ccccc5)C4)nc32)CC1 [Example 778, (R)-3-(9-((1s,4S)-4-carbamoylcyclohexyl)-8-(2-chloro-4,6-difluorophenylamino)-9H-purin-2-ylamino)-N-phenylpiperidine-1-carboxamide] |
| 500 to 1000 nM | NC(=O)[C@H]1CC[C@@H](n2c(Nc3c(Cl)cc(Cl)cc3Cl)nc3cnc(N[C@@H]4CCCN(C(=O)Nc5ccccc5)C4)nc32)CC1 [Example 779, (R)-3-(9-((1s,4S)-4-carbamoylcyclohexyl)-8-(2,4,6-trichlorophenylamino)-9H-purin-2-ylamino)-N-phenylpiperidine-1-carboxamide] |
| > 1000 nM | N#Cc1cc(Cl)c(Nc2nc3cnc(N[C@@H]4CCCN(C(=O)Nc5ccccc5)C4)nc3n2[C@H]2CC[C@@H](C(N)=O)CC2)c(Cl)c1 [Example 780, (R)-3-(9-((1s,4S)-4-carbamoylcyclohexyl)-8-(2,6-dichloro-4-cyanophenylamino)-9H-purin-2-ylamino)-N-phenylpiperidine-1-carboxamide] |
| > 1000 nM | NC(=O)[C@H]1CC[C@@H](n2c(Nc3c(F)cc(F)cc3F)nc3cnc(N[C@@H]4CCCN(C(=O)Nc5ccccc5)C4)nc32)CC1 [Example 781, (R)-3-(9-((1s,4S)-4-carbamoylcyclohexyl)-8-(2,4,6-trifluorophenylamino)-9H-purin-2-ylamino)-N-phenylpiperidine-1-carboxamide] |
| > 1000 nM | NC(=O)[C@H]1CC[C@@H](n2c(Nc3c(F)cc(Cl)cc3F)nc3cnc(N[C@@H]4CCCN(C(=O)Nc5ccccc5)C4)nc32)CC1 [Example 782, (R)-3-(9-((1s,4S)-4-carbamoylcyclohexyl)-8-(4-chloro-2,6-difluorophenylamino)-9H-purin-2-ylamino)-N-phenylpiperidine-1-carboxamide] |
| > 1000 nM | NC(=O)[C@H]1CC[C@@H](n2c(Nc3c(F)cc(Cl)cc3Cl)nc3cnc(N[C@@H]4CCCN(C(=O)Nc5ccccc5)C4)nc32)CC1 [Example 783, (R)-3-(9-((1s,4S)-4-carbamoylcyclohexyl)-8-(2,4-dichloro-6-fluorophenylamino)-9H-purin-2-ylamino)-N-phenylpiperidine-1-carboxamide] |

Second part, the compound before the results:

| SMILES | IC50 |
| --- | --- |
| NC(=O)[C@H]1CC[C@@H](n2c(Nc3c(F)cc(Cl)cc3F)nc3cnc(N[C@@H]4CCCN(Cc5ccccc5)C4)nc32)CC1 [Example 757, (1S,4s)-4-(2-((R)-1-benzylpiperidin-3-ylamino)-8-(4-chloro-2,6-difluorophenylamino)-9H-purin-9-yl)cyclohexanecarboxamide] | > 1000 nM |
| NC(=O)[C@H]1CC[C@@H](n2c(Nc3c(F)cc(Cl)cc3Cl)nc3cnc(N[C@@H]4CCCN(Cc5ccccc5)C4)nc32)CC1 [Example 758, (1S,4s)-4-(2-((R)-1-benzylpiperidin-3-ylamino)-8-(2,4-dichloro-6-fluorophenylamino)-9H-purin-9-yl)cyclohexanecarboxamide] | > 1000 nM |
| NC(=O)[C@H]1CC[C@@H](n2c(Nc3c(Cl)cc(F)cc3Cl)nc3cnc(N[C@@H]4CCCN(Cc5ccccc5)C4)nc32)CC1 [Example 759, (1S,4s)-4-(2-((R)-1-benzylpiperidin-3-ylamino)-8-(2,6-dichloro-4-fluorophenylamino)-9H-purin-9-yl)cyclohexanecarboxamide] | > 1000 nM |
| C[C@]1(C(N)=O)CC[C@@H](n2c(Nc3c(Cl)cc(C#N)cc3Cl)nc3cnc(N[C@@H]4CCOC[C@H]4F)nc32)CC1 [Example 760, (1S,4s)-4-(8-(2,6-dichloro-4-cyanophenylamino)-2-((3S,4R)-3-fluorotetrahydro-2H-pyran-4-ylamino)-9H-purin-9-yl)-1-methylcyclohexanecarboxamide] | < 250 nM |
| C[C@]1(C(N)=O)CC[C@@H](n2c(Nc3c(Cl)cc(C#N)cc3Cl)nc3cnc(N[C@H]4CCOC[C@H]4F)nc32)CC1 [Example 761, (1R,4s)-4-(8-(2,6-dichloro-4-cyanophenylamino)-2-((3S,4S)-3-fluorotetrahydro-2H-pyran-4-ylamino)-9H-purin-9-yl)-1-methylcyclohexanecarboxamide] | < 250 nM |
| N#Cc1cc(Cl)c(Nc2nc3cnc(N[C@@H]4CCOC[C@H]4F)nc3n2[C@H]2CC[C@@H](C(N)=O)CC2)c(Cl)c1 [Example 762, (1S,4s)-4-(8-(2,6-dichloro-4-cyanophenylamino)-2-((3S,4R)-3-fluorotetrahydro-2H-pyran-4-ylamino)-9H-purin-9-yl)cyclohexanecarboxamide] | < 250 nM |
| C[C@@H]1COCC[C@@H]1Nc1ncc2nc(Nc3c(Cl)cc(C#N)cc3Cl)n([C@H]3CC[C@@](C)(C(N)=O)CC3)c2n1 [Example 763, (1S,4s)-4-(8-(2,6-dichloro-4-cyanophenylamino)-2-((3S,4R)-3-methyltetrahydro-2H-pyran-4-ylamino)-9H-purin-9-yl)-1-methylcyclohexanecarboxamide] | < 250 nM |
| CC1(C)COCC[C@H]1Nc1ncc2nc(Nc3c(F)cc(Cl)cc3Cl)n([C@H]3CC[C@@H](C(N)=O)CC3)c2n1 [Example 764, (1S,4s)-4-(8-(2,4-dichloro-6-fluorophenylamino)-2-((R)-3,3-dimethyltetrahydro-2H-pyran-4-ylamino)-9H-purin-9-yl)cyclohexanecarboxamide] | 500 to 1000 nM |
| N#Cc1cc(Cl)c(Nc2nc3cnc(N[C@H]4CCOC[C@H]4F)nc3n2[C@H]2CC[C@@H](C(N)=O)CC2)c(Cl)c1 [Example 765, (1R,4s)-4-(8-(2,6-dichloro-4-cyanophenylamino)-2-((3S,4S)-3-fluorotetrahydro-2H-pyran-4-ylamino)-9H-purin-9-yl)cyclohexanecarboxamide] | < 250 nM |
| CC1(C)COCC[C@H]1Nc1ncc2nc(Nc3c(Cl)cc(Cl)cc3Cl)n([C@H]3CC[C@@H](C(N)=O)CC3)c2n1 [Example 766, (1S,4s)-4-(2-((R)-3,3-dimethyltetrahydro-2H-pyran-4-ylamino)-8-(2,4,6-trichlorophenylamino)-9H-purin-9-yl)cyclohexanecarboxamide] | 500 to 1000 nM |
| CC(C)OC(=O)N1CCC[C@@H](Nc2ncc3nc(Nc4c(F)cc(F)cc4Cl)n([C@H]4CC[C@@H](C(N)=O)CC4)c3n2)C1 [Example 767, (R)-isopropyl 3-(9-((1s,4S)-4-carbamoylcyclohexyl)-8-(2-chloro-4,6-difluorophenylamino)-9H-purin-2-ylamino)piperidine-1-carboxylate] | > 1000 nM |
| CC(C)OC(=O)N1CCC[C@@H](Nc2ncc3nc(Nc4c(Cl)cc(Cl)cc4Cl)n([C@H]4CC[C@@H](C(N)=O)CC4)c3n2)C1 [Example 768, (R)-isopropyl 3-(9-((1s,4S)-4-carbamoylcyclohexyl)-8-(2,4,6-trichlorophenylamino)-9H-purin-2-ylamino)piperidine-1-carboxylate] | 500 to 1000 nM |
| CC(C)OC(=O)N1CCC[C@@H](Nc2ncc3nc(Nc4c(Cl)cc(C#N)cc4Cl)n([C@H]4CC[C@@H](C(N)=O)CC4)c3n2)C1 [Example 769, (R)-isopropyl 3-(9-((1s,4S)-4-carbamoylcyclohexyl)-8-(2,6-dichloro-4-cyanophenylamino)-9H-purin-2-ylamino)piperidine-1-carboxylate] | 500 to 1000 nM |
| CC(C)OC(=O)N1CCC[C@@H](Nc2ncc3nc(Nc4c(Cl)cc(C(F)(F)F)cc4Cl)n([C@H]4CC[C@@H](C(N)=O)CC4)c3n2)C1 [Example 770, (R)-isopropyl 3-(9-((1s,4S)-4-carbamoylcyclohexyl)-8-(2,6-dichloro-4-(trifluoromethyl)phenylamino)-9H-purin-2-ylamino)piperidine-1-carboxylate] | > 1000 nM |
| CC(C)OC(=O)N1CCC[C@@H](Nc2ncc3nc(Nc4c(F)cc(C#N)cc4F)n([C@H]4CC[C@@H](C(N)=O)CC4)c3n2)C1 [Example 771, (R)-isopropyl 3-(9-((1s,4S)-4-carbamoylcyclohexyl)-8-(4-cyano-2,6-difluorophenylamino)-9H-purin-2-ylamino)piperidine-1-carboxylate] | > 1000 nM |
| CC(C)OC(=O)N1CCC[C@@H](Nc2ncc3nc(Nc4c(F)cc(F)cc4F)n([C@H]4CC[C@@H](C(N)=O)CC4)c3n2)C1 [Example 772, (R)-isopropyl 3-(9-((1s,4S)-4-carbamoylcyclohexyl)-8-(2,4,6-trifluorophenylamino)-9H-purin-2-ylamino)piperidine-1-carboxylate] | > 1000 nM |
